{"source": "patent US9329170B2", "about": "“Single cell gene expression for diagnosis, prognosis and identification of drug targets” (The Board of Trustees of the Leland Stanford Junior …, priority 2009, dated 2016)", "test_system": "murine breast cancer stem cells", "assay": "clonogenic ability of murine breast cancer stem cells", "type": "cell-based", "conditions": "short, 24 hour exposure to the inhibitor; p<0.02, t test", "protocol": "Many of these genes have been linked to self renewal and cancer. These include the insulin growth factor binding partner IGFBP3, the HOX family members HOXA3, HOXA5, ME1S1 as well as transcription factors like ETS1, ETS2, RUNX2 and STAT3. It was tested whether the transcription factor STAT3 is a bona fide cancer stem cell regulator. STAT3 plays a role in the maintenance of both ES cells and HSCs. […] Next, when we examined immunochemistry analysis of breast tumors the STAT3 positive cells tended to be concentrated on the invasive edge of the cancer and the protein was not seen in the more differentiated-looking cells in the interior parts of tumors. Finally, there are small molecule inhibitors of STAT3. Such inhibitors can be tested in cancer stem cell models. The effect of the STAT3 inhibitor cucurbitacin on the clonogenic ability of murine breast cancer stem cells was tested."}
{"substance": "cucurbitacin", "values": [{"measurement": "reduction of the number of colonies", "result": "~50", "unit": "%"}]}
